For this test, the system named is HCV genotype 1a replicon cell line. The experiment in a line: HCV Genotype 1a Replicon Assay. The test is classed as cell-based, hepatitis C virus. Conditions: Huh7.5 cell background, NS3-specific protease activity in lysates, 48 or 72 hours; for EC50: Hepatitis C virus, read-out: Genotype 1a (pEC50 class) (converted). As for the experimental part:
Assay 2: HCV Genotype 1a Replicon Assay
The HCV genotype 1a replicon cell line was obtained from Apath LLC (APC89; Huh7.5 cell background). This subgenomic replicon contains the N-terminus of the HCV core protein fused to the neomycin-resistance selectable marker. The EMCV IRES lies downstream and drives expression of the non-structural proteins NS3-NS5B. Compound potencies were determined using the NS3-specific protease activity in lysates as a measurement of compound inhibition of replicon levels.
Cells were grown at 37° C. in a 5% CO2 humidified incubator in DMEM (Invitrogen) with 10% FBS (HyClone), 1×NEAA (Invitrogen), 1× Pen-Strep (Invitrogen), and 850 μg/mL G418 (Invitrogen). On day 1 of the assay, cells were plated at 15,000 cells/well in black 96-well tissue culture plates (Costar) in 200 μL media lacking G418. Four hours later, once the cells had adhered, the media was removed and replaced with media (no G418) containing dose-responses of test compounds. Compounds were initially diluted in DMSO and then diluted another 200× in media to bring the final DMSO concentration down to 0.5%. The cells were incubated with test compounds for 48 or 72 hours. At the end of the incubation period, media and compound were removed from the plates.
To determine the NS3-specific protease activity in lysates, the cells were lysed at room temperature in 50 μL/well of 50 mM Hepes pH 7.5, 150 mM NaCl, 15% Glycerol, 0.15% Triton X-100, 10 mM DTT for 20 minutes with shaking. 50 μL of an NS3/4a protease-specific FRET substrate (Anaspec RET SI Cat#22991) was then added to the wells at a final concentration of 15 μM. The plates were incubated at 37° C. for 20 minutes, which corresponds to a timepoint at which the protease activity is still in the linear phase. Protease activity was determined by measuring fluorescence (Excitation: 340 nm; Emission: 509 nm).
To analyze the data, the fluorescence was plotted vs. the compound concentration, and EC50 values were determined from a 4-parameter robust fit model using GraphPad Prism software.

The structures appear in SMILES notation. A value given as a limit tells only on which side of the number the result lay.

For the molecule `COC(=O)N[C@H](C(=O)N1CCC[C@H]1c1nc(-c2ccc(-c3ccc(NC(=O)N4CC5CCC(C4)N5C4CCN(C(=O)OC(C)(C)C)CC4)cc3OC(F)(F)F)cc2)c[nH]1)C(C)C` [Example 8-2], the EC50 is 0.1 to 1 nM.
Take `COC(=O)N[C@H](C(=O)N1C[C@@H](C)C[C@H]1c1nc(-c2ccc(-c3cc(Cl)c(NC(=O)N4CCC(N5CCN(C(=O)[C@H]6CC6(C)C)C[C@H]5C)CC4)cc3OC(F)(F)F)cc2)c[nH]1)C(C)C` [Example 4-17]: the “Genotype 1a (pEC50 class)” value was “C (C represents pEC50 between and 9 and about 10, (EC50 between 1 nM and 0.1 nM))”.
For the molecule `COC(=O)N[C@H](C(=O)N1C[C@@H](OC)C[C@H]1c1nc(-c2ccc(-c3ccc(NC(=O)N4CCC(N5CCN(C(=O)C6CCC6(C)C)CC5)CC4)cc3OC(F)(F)F)cc2)c[nH]1)C(C)C` (stereo partly drawn) [Example 14, [(S)-1-((2S,4S)-2-{4-[4′-({4-[4-(2,2-Dimethyl-cyclobutanecarbonyl)-piperazin-1-yl]-piperidine-1-carbonyl}-amino)-2′-trifluoromethoxy-biphenyl-4-yl]-1H-imidazol-2-yl}-4-methoxy-pyrrolidine-1-carbonyl)-2-methyl-propyl]-carbamic acid methyl ester], the EC50 is 0.1 to 1 nM.
With `COC(=O)N[C@H](C(=O)N1CCC[C@H]1c1nc(-c2ccc(-c3ccc(NC(=O)N4CCN(C5CCN(C(=O)C6CC7CCC6C7)CC5)CC4)cc3OC(F)(F)F)cc2)c[nH]1)C(C)C` (stereo partly shown) [Example 1-11], the “Genotype 1a (pEC50 class)” value was “C (C represents pEC50 between and 9 and about 10, (EC50 between 1 nM and 0.1 nM))”.
Same read-out and setting: next, `COC(=O)N[C@H](C(=O)N1C[C@@H](C)C[C@H]1c1nc(-c2ccc(-c3ccc(NC(=O)N4CCN(C5CCN(C(=O)[C@H]6CC6(C)C)CC5)CC4)cc3OC(F)(F)F)cc2)c(F)[nH]1)C(C)C` [Example 10]: “D (D represents pEC50>10 (EC50<0.1 nM))”; `COC(=O)NC(C(=O)N1CCCC1c1nc(-c2ccc(-c3ccc(NC(=O)N4CCN(C5CCN(C(=O)C6CC6(C)C)CC5)C(C)C4)cc3OC(F)(F)F)cc2)c[nH]1)C(C)C` (stereo not shown) [Example 1-37]: “B (B represents pEC50 between 8 and 9 (EC50 between 1 and 10 nM))”.
On the same count and under the same terms, the entry for `COC(=O)N[C@H](C(=O)N1C[C@@H](C)C[C@H]1c1nc(-c2ccc(-c3ccc(NC(=O)N4CCN(C5CCN(C(=O)[C@H]6CC6(C)C)CC5)CC4)cc3OC(F)(F)F)cc2)c[nH]1)C(C)C` [Example 2-11] is “D (D represents pEC50>10 (EC50<0.1 nM))”.
In the case of `COC(=O)N[C@H](C(=O)N1CCC[C@H]1c1nc(-c2ccc(-c3ccc(NC(=O)N4CCN(C5CCN(C(=O)OCc6ccccc6)CC5)CC4)cc3)cc2)c[nH]1)C(C)C` [Example 1-2], the “Genotype 1a (pEC50 class)” value is “B (B represents pEC50 between 8 and 9 (EC50 between 1 and 10 nM))”.
`COC(=O)NC(C(=O)N1CCCC1c1nc(-c2ccc(-c3ccc(NC(=O)N4CCN(C5CCN(C(=O)C(C)(C)C)CC5)C(CO)C4)cc3OC(F)(F)F)cc2)c[nH]1)C(C)C` (stereo not shown) [Example 1-42]: the “Genotype 1a (pEC50 class)” value is “B (B represents pEC50 between 8 and 9 (EC50 between 1 and 10 nM))”.
Same read-out and setting: the entry for `COC(=O)N[C@H](C(=O)N1CCC[C@H]1c1nc(-c2ccc(-c3cc(Cl)c(NC(=O)N4CCN(C5CCN(C(=O)[C@H]6CC6(C)C)CC5)CC4)cc3OC(F)(F)F)cc2)c[nH]1)C(C)C` [Example 1-34] is “C (C represents pEC50 between and 9 and about 10, (EC50 between 1 nM and 0.1 nM))”.
In the case of `COC(=O)N[C@H](C(=O)N1C[C@@H](OC)C[C@H]1c1nc(-c2ccc(-c3ccc(NC(=O)N4CCN(C5CCN(C(=O)C(C)(C)C)CC5)CC4)cc3OC(F)(F)F)cc2)c[nH]1)C(C)C` [Example 5-1], the EC50 was 0.1 to 1 nM.
`CCN(CC)[C@@H](C(=O)N1CCC(N2CCN(C(=O)Nc3ccc(-c4ccc(-c5c[nH]c([C@@H]6CCCN6C(=O)[C@@H](NC(=O)OC)C(C)C)n5)cc4)c(OC(F)(F)F)c3)CC2)CC1)C(C)C` [Example 1-30]: the “Genotype 1a (pEC50 class)” value was “A (A represents a pEC50 value between 6 and 8 (EC50 between 1 μM and 10 nM))”.
The same measure, in the same setting: the entry for `COC(=O)N[C@H](C(=O)N1CCC[C@H]1c1nc(-c2ccc(-c3cc(F)c(NC(=O)N4CCN(C5CCN(C(=O)C6CC6)CC5)CC4)cc3OC(F)(F)F)cc2)c[nH]1)C(C)C` [Example 1-28] is “C (C represents pEC50 between and 9 and about 10, (EC50 between 1 nM and 0.1 nM))”; for `COC(=O)N[C@H](C(=O)N1CCC[C@H]1c1nc(-c2ccc(-c3ccc(NC(=O)N4CCN(C5CCN(C(=O)c6ncccn6)CC5)CC4)cc3OC(F)(F)F)cc2)c[nH]1)C(C)C` [Example 1-21] it is “B (B represents pEC50 between 8 and 9 (EC50 between 1 and 10 nM))”.
Consider `COC(=O)N[C@H](C(=O)N1C[C@@H](OC)C[C@H]1c1nc(-c2ccc(-c3ccc(NC(=O)N4CCN(C5CCN(C(=O)C(C)(C)CO)CC5)CC4)cc3OC(F)(F)F)cc2)c[nH]1)C(C)C` [Example 5-5], for which the EC50 is 0.1 to 1 nM.
Regarding `[2H]C([2H])([2H])C1(C([2H])([2H])[2H])CC1C(=O)N1CCC(N2CCN(C(=O)Nc3ccc(-c4ccc(-c5nc([C@@H]6C[C@H](C)CN6C(=O)[C@@H](NC(=O)OC)C(C)C)[nH]c5Cl)cc4)c(OC(F)(F)F)c3)CC2)CC1` (stereo partly shown) [Example 2-27], the “Genotype 1a (pEC50 class)” value is “D (D represents pEC50>10 (EC50<0.1 nM))”.
Still for that read-out and setting: the entry for `[2H]C([2H])([2H])C1(C([2H])([2H])[2H])CC1C(=O)N1CCC(N2CCN(C(=O)Nc3cc(OC(F)(F)F)c(-c4ccc(-c5c[nH]c([C@@H]6C[C@H](C)CN6C(=O)[C@@H](NC(=O)OC)C(C)C)n5)cc4)cc3Cl)CC2)CC1` (stereo partly shown) [Example 2-23] is “C (C represents pEC50 between and 9 and about 10, (EC50 between 1 nM and 0.1 nM))”.
Turning to `COC(=O)N[C@H](C(=O)N1CCC[C@H]1c1nc(-c2ccc(-c3ccc(NC(=O)N4CC5CCC(C4)N5C4CCN(C(=O)C5CC5)CC4)cc3OC(F)(F)F)cc2)c[nH]1)C(C)C` [Example 8-1], the EC50 was 1 to 10 nM.
On the same count and under the same terms, next, `COC(=O)N[C@H](C(=O)N1[C@@H](C)CC[C@H]1c1nc(-c2ccc(-c3ccc(NC(=O)N4CCN(C5CCN(C(=O)C(C)(C)C)CC5)CC4)cc3OC(F)(F)F)cc2)c[nH]1)C(C)C` [Example 8-3]: 0.1 to 1 nM.
For the molecule `COC(=O)N[C@H](C(=O)N1C[C@@H](C)C[C@H]1c1nc(-c2ccc(-c3cc(Cl)c(NC(=O)N4CCN(C5CCN(C(=O)C6CC(F)(F)C6)CC5)CC4)cc3OC(F)(F)F)cc2)c[nH]1)C(C)C` [Example 2-22], the “Genotype 1a (pEC50 class)” value is “B (B represents pEC50 between 8 and 9 (EC50 between 1 and 10 nM))”.
The same measure, in the same setting: next, `COC(=O)N[C@H](C(=O)N1C[C@@H](C)C[C@H]1c1nc(-c2ccc(-c3cc(Cl)c(NC(=O)N4CCC(N5CCN(C(=O)C6CC6)[C@@H](C)C5)CC4)cc3OC(F)(F)F)cc2)c[nH]1)C(C)C` [Example 4-5]: “B (B represents pEC50 between 8 and 9 (EC50 between 1 and 10 nM))”.
As for `COC(=O)N[C@H](C(=O)N1C[C@@H](C)C[C@H]1c1nc(-c2ccc(-c3cc(Cl)c(NC(=O)N4CCC(N5CCN(C(=O)C(C)(C)C)CC5)CC4)cc3OC(F)(F)F)cc2)c[nH]1)C(C)C` [Example 4-13], the “Genotype 1a (pEC50 class)” value was “B (B represents pEC50 between 8 and 9 (EC50 between 1 and 10 nM))”.
With `COC(=O)N[C@H](C(=O)N1C[C@@H](C)C[C@H]1c1nc2c(ccc3cc(-c4ccc(NC(=O)N5CCN(C6CCN(C(=O)OC(C)(C)C)CC6)CC5)cc4OC(F)(F)F)ccc32)[nH]1)C(C)C` [Example 6-2], the EC50 is under 0.1 nM.
On to `COC(=O)N[C@H](C(=O)N1CCC[C@H]1c1nc(-c2ccc(-c3ccc(NC(=O)N4CCN(C5CCN(C(=O)OC(C)(C)C)CC5)C[C@H]4C)cc3OC(F)(F)F)cc2)c[nH]1)C(C)C` [Example 1-19], for which the “Genotype 1a (pEC50 class)” value is “C (C represents pEC50 between and 9 and about 10, (EC50 between 1 nM and 0.1 nM))”.
In the case of `COC(=O)N[C@H](C(=O)N1C[C@@H](C)C[C@H]1c1nc(-c2ccc(-c3ccc(NC(=O)N4CCC(N5CCN(C(=O)[C@H]6CC6(C)C)CC5)CC4)cc3OC(F)(F)F)cc2)c[nH]1)C(C)C` [Example 4-11], the “Genotype 1a (pEC50 class)” value was “C (C represents pEC50 between and 9 and about 10, (EC50 between 1 nM and 0.1 nM))”.
On the same count and under the same terms, the entry for `CNC(=O)N1CCN(C2CCN(C(=O)Nc3ccc(-c4ccc(-c5c[nH]c([C@@H]6CCCN6C(=O)[C@@H](NC(=O)OC)C(C)C)n5)cc4)cc3)CC2)CC1` [Example 3-5] is “A (A represents a pEC50 value between 6 and 8 (EC50 between 1 μM and 10 nM))”.
Still for that read-out and setting: next, `COC(=O)N[C@H](C(=O)N1C[C@@H](C)C[C@H]1c1nc(-c2ccc(-c3cc(Cl)c(NC(=O)N4CCC(N5CCN(C(=O)C(C)(C)C)C[C@H]5C)CC4)cc3OC(F)(F)F)cc2)c[nH]1)C(C)C` [Example 4-16]: “C (C represents pEC50 between and 9 and about 10, (EC50 between 1 nM and 0.1 nM))”.
Regarding `COC(=O)N[C@H](C(=O)N1C[C@@H](C)C[C@H]1c1nc(-c2ccc(-c3cc(Cl)c(NC(=O)N4CCN(C5CCN(C(=O)C6CC6(F)F)CC5)CC4)cc3OC(F)(F)F)cc2)c[nH]1)C(C)C` (stereo partly shown) [Example 5], the EC50 is 0.1 to 1 nM.

The values above are taken from patent US9206159B2, “Piperazine-piperidine compounds as hepatitis C virus inhibitors” (Theravance Biopharma R&D IP, LLC, priority 2012, dated 2015).
